In general, EC50 refers to the concentration needed to bring the measured effect to its halfway point.

In patent US9073862B2, “Substituted 2-oxy-quinoline-3-carboxamides as KCNQ2/3 modulators” (Grünenthal GmbH, priority 2010, dated 2015) one finds EC50 and Emax data, which are given here for 24 molecules.

The target in this assay is T1, KCNQ2/3 channels (Homo sapiens, UniProt O43525+O43526).
T1 construct: expressed in transfected cells; host or cells: CHO-K1
Kind of assay: Fluorescence assay using a voltage sensitive dye (fluorimetry). It counts as cell-based. As to conditions: CHO-K1 cells expressing KCNQ2/3 channels; for Emax: relative to retigabine = 100%, read-out: Fluorimetry % efficacy (retigabine = 100%). The protocol: Method I. Fluorescence Assay Using a Voltage Sensitive Dye (Fluorimetry)
[…] CHO-K1 cells expressing KCNQ2/3 channels are cultivated adherently at 37° C., 5% CO2 and 95% humidity in cell culture bottles (e.g. 80 cm^2 TC flasks, Nunc) with DMEM-high glucose (Sigma Aldrich, D7777) including 10% FCS (PAN Biotech, e.g. 3302-P270521) or alternatively MEM Alpha Medium (1×, liquid, Invitrogen, #22571), 10% fetal calf serum (FCS) (Invitrogen, #10270-106, heat-inactivated) and the necessary selection antibiotics.
Before being sown out for the measurements, the cells are washed with 1×DPBS buffer Ca^2+/Mg^2+-free (e.g. Invitrogen, #14190-094) and detached from the bottom of the culture vessel by using Accutase (PAA Laboratories, #L11-007) (incubation with Accutase for 15 min at 37° C.). The cell number is determined using a CASY™ cell counter (TCC, Schärfe System). Depending on the optimal density for each individual cell line, 20,000-30,000 cells/well/100 μl are seeded onto 96-well Corning™ CellBIND™ assay plates (Flat Clear Bottom Black Polystyrene Microplates, #3340). Freshly seeded cells are then left to settle for one hour at room temperature, followed by incubation for 24 hours at 37° C., 5% CO2 and 95% humidity.
The voltage-sensitive fluorescent dye from the Membrane Potential Assay Kit (Red™ Bulk format part R8123 for FLIPR, MDS Analytical Technologies™) is prepared by dissolving the contents of one vessel Membrane Potential Assay Kit Red Component A in 200 ml of extracellular buffer (ES buffer, 120 mM NaCl, 1 mM KCl, 10 mM HEPES, 2 mM CaCl2, 2 mM MgCl2, 10 mM glucose; pH 7.4). After removal of the nutrient medium, the cells are washed once with 200 μl of ES buffer, then loaded for 45 min at room temperature in 100 μl of dye solution in the dark.
Fluorescence measurements are carried out in a BMG Labtech FLUOstar™, BMG Labtech NOVOstar™ or BMG Labtech POLARstar™ instrument (525 nm excitation, 560 nm emission, Bottom Read mode). After incubation with the dye, 50 μl of the test substances in the desired concentrations, or 50 μl of ES buffer for control purposes, are applied to the wells of the assay plate and incubated for 30 min at room temperature while being shielded from light. The fluorescence intensity of the dye is then measured for 5 min and the fluorescence value F1 of each well is thus determined at a given, constant time. 15 μl of a KCl solution are then added to each well (final concentration of potassium ions 92 mM). The change in fluorescence intensity is subsequently monitored until all the relevant values have been obtained (mainly 5-30 min). At a given time post KCl application, a fluorescence value F2 is determined, in this case at the time of the fluorescence peak.
For calculation, the fluorescence intensity F2 is corrected for the fluorescence intensity F1, and the activity (ΔF/F) of the target compound on the potassium channel is determined as follows:
In order to determine whether a substance has agonistic activity,
[formula] can be related to
[formula] of control wells.
[formula] is determined by adding to the well only the buffer solution instead of the test substance, determining the value F1K of the fluorescence intensity, adding the potassium ions as described above, and measuring a value F2K of the fluorescence intensity. F2K and F1K are then calculated as follows: […]
A substance has an agonistic activity on the potassium channel if
[formula] is greater than
Independently of the comparison of
[formula] it is possible to conclude that a target compound has agonistic activity if
[formula] increases dose dependently.
Calculations of EC50 and IC50 values are carried out with the aid of ‘Prism v4.0’ software (Graph Pad Software™).

On to `COc1nc2cc(F)c(F)cc2c(OC)c1C(=O)NCc1cccc(F)c1` [Example 17, 6,7-difluoro-N-[(3-fluorophenyl)-methyl]-2,4-dimethoxy-quinoline-3-carboxylic acid amide], for which the EC50 was 218 nM and the Emax amounted to 147%.

Turning to `CCOc1nc2ccccc2c(C(F)(F)F)c1C(=O)NCc1cccc(F)c1` [Example 52, 2-ethoxy-N-[(3-fluorophenyl)-methyl]-4-(trifluoromethyl)-quinoline-3-carboxylic acid amide], the half-maximal effective concentration (EC50) was 205 nM and the Emax worked out at 67%.

As to `Cc1c(C(=O)NCc2cccc(F)c2)c(OCCO)nc2cc(C(F)(F)F)ccc12` [Example 9, N-[(3-fluorophenyl)-methyl]-2-(2-hydroxy-ethoxy)-4-methyl-7-(trifluoromethyl)-quinoline-3-carboxylic acid amide], the concentration for a half-maximal effect (EC50) was 390 nM and the Emax worked out at 119%.

As to `CC(C)Oc1nc2ccccc2c(C(F)(F)F)c1C(=O)NCc1cccc(F)c1` [Example 53, N-[(3-fluorophenyl)-methyl]-2-isopropoxy-4-(trifluoromethyl)-quinoline-3-carboxylic acid amide], the EC50 stood at 108 nM and the Emax turned out to be 84%.

On to `COc1nc2cc(C(F)(F)F)ccc2c(C)c1C(=O)NCc1ccc(F)c(C)c1` [Example 23, N-[(4-fluoro-3-methyl-phenyl)-methyl]-2-methoxy-4-methyl-7-(trifluoromethyl)-quinoline-3-carboxylic acid amide], for which a half-maximal response (EC50) required 62 nM and the Emax was determined as 73%.

Take `COc1nc2cc(C(F)(F)F)ccc2c(C)c1C(=O)NCCC(C)(C)C` [Example 1, N-(3,3-dimethyl-butyl)-2-methoxy-4-methyl-7-(trifluoromethyl)-quinoline-3-carboxylic acid amide]: the Emax stood at 57%.

For `COc1nc2cc(F)ccc2c(C)c1C(=O)NCc1cccc(F)c1` [Example 18, 7-fluoro-N-[(3-fluorophenyl)-methyl]-2-methoxy-4-methyl-quinoline-3-carboxylic acid amide], the response was half-maximal at 340 nM (EC50) and the Emax came out at 62%.

In the case of `CCOc1nc2cc(F)c(F)cc2c(OC)c1C(=O)NCc1cccc(F)c1` [Example 15, 2-ethoxy-6,7-difluoro-N-[(3-fluorophenyl)-methyl]-4-methoxy-quinoline-3-carboxylic acid amide], the 50% effective concentration (EC50) is 106 nM and the Emax was 181%.

With `COc1nc2cc(C(F)(F)F)ccc2c(C)c1C(=O)NCc1cccc(F)c1O` [Example 42, N-[(3-fluoro-2-hydroxy-phenyl)-methyl]-2-methoxy-4-methyl-7-(trifluoromethyl)-quinoline-3-carboxylic acid amide], the half-maximal effective concentration (EC50) came out at 123 nM and the Emax was found to be 137%.

For the molecule `COc1nc2cc(F)cc(F)c2c(C)c1C(=O)NCc1cccc(F)c1` [Example 47, 5,7-difluoro-N-[(3-fluorophenyl)-methyl]-2-methoxy-4-methyl-quinoline-3-carboxylic acid amide], the Emax was found to be 43%.

Take `COc1nc2cc(C(F)(F)F)ccc2c(C)c1C(=O)NCCCC(C)C` [Example 28, 2-methoxy-4-methyl-N-(4-methyl-pentyl)-7-(trifluoromethyl)-quinoline-3-carboxylic acid amide]: it took 81 nM to reach a half-maximal effect (EC50) and the Emax was found to be 184%.

Take `CCOc1nc2cc(C(F)(F)F)ccc2c(C)c1C(=O)NCCCC(C)C` [Example 27, 2-ethoxy-4-methyl-N-(4-methyl-pentyl)-7-(trifluoromethyl)-quinoline-3-carboxylic acid amide]: a half-maximal response (EC50) required 84 nM and the Emax turned out to be 173%.

Turning to `COc1nc2cc(C(F)(F)F)ccc2c(C)c1C(=O)NCc1ccc(C)cc1` [Example 25, 2-methoxy-4-methyl-N-(p-tolyl-methyl)-7-(trifluoromethyl)-quinoline-3-carboxylic acid amide], the EC50 worked out at 182 nM and the Emax stood at 96%.

Turning to `Cc1c(C(=O)NCc2ccc(F)cc2)c(OC(C)C)nc2cc(C(F)(F)F)ccc12` [Example 11, N-[(4-fluorophenyl)-methyl]-2-isopropoxy-4-methyl-7-(trifluoromethyl)-quinoline-3-carboxylic acid amide], the EC50 came to 52 nM and the Emax was 164%.

For `CCOc1nc2cc(C#N)ccc2c(C)c1C(=O)NCc1cccc(F)c1` [Example 36, 7-cyano-2-ethoxy-N-[(3-fluorophenyl)-methyl]-4-methyl-quinoline-3-carboxylic acid amide], the midpoint of the response, the EC50, lay at 56 nM and the Emax is 105%.

With `COc1nc2cc(C(F)(F)F)ccc2c(C)c1C(=O)NCc1ccc(O)c(F)c1` [Example 45, N-[(3-fluoro-4-hydroxy-phenyl)-methyl]-2-methoxy-4-methyl-7-(trifluoromethyl)-quinoline-3-carboxylic acid amide], the EC50 came out at 2060 nM and the Emax came to 87%.

As for `COc1nc2cc(C#N)ccc2c(C)c1C(=O)NCc1cccc(F)c1` [Example 37, 7-cyano-N-[(3-fluorophenyl)-methyl]-2-methoxy-4-methyl-quinoline-3-carboxylic acid amide], a half-maximal response (EC50) required 261 nM and the Emax was 85%.

Turning to `CCOc1nc2cc(C(F)(F)F)ccc2c(OC)c1C(=O)NCc1ccc(F)cc1` [Example 14, 2-ethoxy-N-[(4-fluorophenyl)-methyl]-4-methoxy-7-(trifluoromethyl)-quinoline-3-carboxylic acid amide], the midpoint of the response, the EC50, lay at 75 nM and the Emax stood at 155%.

As for `CCOc1nc2cc(C(F)(F)F)ccc2c(C)c1C(=O)NCc1ccc(C)cc1` [Example 26, 2-ethoxy-4-methyl-N-(p-tolyl-methyl)-7-(trifluoromethyl)-quinoline-3-carboxylic acid amide], the concentration for a half-maximal effect (EC50) was 131 nM and the Emax was found to be 117%.

As for `COc1nc2cc(F)ccc2c(C)c1C(=O)NCc1ccc(F)cc1` [Example 46, 7-fluoro-N-[(4-fluorophenyl)-methyl]-2-methoxy-4-methyl-quinoline-3-carboxylic acid amide], a half-maximal response (EC50) required 299 nM and the Emax turned out to be 59%.

Take `COc1nc2cc(F)c(F)cc2c(C)c1C(=O)NCc1cccc(F)c1` [Example 48, 6,7-difluoro-N-[(3-fluorophenyl)-methyl]-2-methoxy-4-methyl-quinoline-3-carboxylic acid amide]: a half-maximal response (EC50) required 315 nM and the Emax is 96%.

Consider `COc1nc2cc(C(F)(F)F)ccc2c(C)c1C(=O)NCc1ccc(C)c(F)c1` [Example 19, N-[(3-fluoro-4-methyl-phenyl)-methyl]-2-methoxy-4-methyl-7-(trifluoromethyl)-quinoline-3-carboxylic acid amide], for which it took 92 nM to reach a half-maximal effect (EC50) and the Emax was found to be 99%.

For the molecule `COc1nc2cc(C(F)(F)F)ccc2c(C)c1C(=O)NCc1cc(O)cc(F)c1` [Example 43, N-[(3-fluoro-5-hydroxy-phenyl)-methyl]-2-methoxy-4-methyl-7-(trifluoromethyl)-quinoline-3-carboxylic acid amide], the Emax was 9%.

For `COc1nc2c(F)c(F)ccc2c(C)c1C(=O)NCc1cccc(F)c1` [Example 49, 7,8-difluoro-N-[(3-fluorophenyl)-methyl]-2-methoxy-4-methyl-quinoline-3-carboxylic acid amide], the concentration giving a half-maximal response (EC50) is 229 nM and the Emax stood at 70%.
